Patent US7355055B2, “Compounds for treatment of lipase-mediated diseases” (Reliance Life Sciences Pvt. Ltd., priority 2005, dated 2008)
Structures can show the parent of a compound that is named as a salt.

How the values were obtained:
[1] = target: T1, Pancreatic Lipase (Sus scrofa, UniProt P00591); assay: Pancreatic lipase inhibition assay (p-nitro phenol palmitate substrate, 96-well); format: biochemical; details: for IC50: dose range 6.25 μM-200 μM, interpolated by linear regression; for inhibition at 100 µM / inhibition at 200 µM: pancreatic lipase, 37° C., OD 405 nm; for inhibition at 100 µM: compound 100 μM; for inhibition at 200 µM: compound 200 μM
T1 construct: purchased Sigma L-3126
T1 sequence (P00591 1-450): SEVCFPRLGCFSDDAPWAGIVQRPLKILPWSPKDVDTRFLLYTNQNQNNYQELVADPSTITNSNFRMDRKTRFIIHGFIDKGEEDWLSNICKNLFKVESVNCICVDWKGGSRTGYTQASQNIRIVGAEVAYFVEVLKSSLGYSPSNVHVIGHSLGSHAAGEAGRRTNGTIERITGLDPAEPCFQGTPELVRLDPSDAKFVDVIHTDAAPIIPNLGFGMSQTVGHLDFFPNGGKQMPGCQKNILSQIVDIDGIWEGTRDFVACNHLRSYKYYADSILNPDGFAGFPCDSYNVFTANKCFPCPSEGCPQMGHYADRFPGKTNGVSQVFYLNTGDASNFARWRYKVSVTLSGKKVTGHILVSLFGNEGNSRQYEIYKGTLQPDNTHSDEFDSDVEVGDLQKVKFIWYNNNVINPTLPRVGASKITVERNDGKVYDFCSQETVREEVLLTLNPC
Description: (§1) Preparation of test samples: Structures #2-#19 were dissolved in 1 mL DMSO to obtain a 10 mM stock solution, and were vortexed to dissolution and stored at 4° C. The various concentration of working samples were prepared in 0.2 M phosphate buffer, pH-8.0. This sample was used as test sample for all further assays.
Lipase assay: Lipase assay was performed by method described by Winkler and Stuckmann, 1979, with modification. (Winkler, U. K. & Stuckmann, M. Glycogen, hyaluronate, and some other polysaccharides greatly enhance the formation of exolipase by Serratia marcescens. J. Bacteriol. 138: 663-670 (1979)) Assay was designed, using a 96-well format. The substrate used in this assay was p-nitro phenol palmitate (Sigma, Cat No-N-2752). 4.5 mg of p-nitro phenol palmitate was dissolved in 200 μl of N,N-dimethyl formamide (Sigma, Cat No, D-4551) and volume made up to 10 ml with 0.1 M pH 8.0 phosphate buffer. Pancreatic Lipase (Sigma, Cat No. L-3126) sample was prepared by dissolving the enzyme in 0.1M phosphate buffer at a concentration of 5 mg/ml. The reaction mixture consisted of 150 μl substrate solution; 40 μl phosphate buffer (pH 8.0, 0.2 M) and 10 μl lipase solution. The reaction mixture was incubated at 37° C. and optical density was measured at 405 nm after incubation. Enzyme activity was presented in the form of international unit (IU).
Lipase activity: One enzyme unit of lipase is defined as that quantity releasing 1 nm of free phenol from the substrate (p-nitro phenol palmitate) per min per ml under the standard assay condition (Winkler and Stuckmann, 1979; Yadav R P, Saxena R K, Gupta R. Davidson W S., Purification and characterization of a region-specific lipase from Aspergillus terreus. Biotechnol. Appl. Biochem. (1998) 28, (243-249)). It is derived from standard graph of p-nitro phenol (Sigma, 104-8).
(§2) Lipase inhibition assay: Enzyme inhibition assay was performed in a dose dependent manner. The concentration of the synthetic analogs checked were 100 μM & 200 μM. The assay was similar to assay described above except 40 μl of test sample was used instead of phosphate buffer in control. Optical density was measured at 0 hr and following incubation at 37° C.
Enzyme Inhibition: Enzyme inhibition was presented in the term of relative activity and percentage inhibition simply on the basis of change in international unit (IU).
as §1, with “Synthetic analogues” for “Structures #2-#19”, “ml” for “mL”, “solution. The samples” for “solution, and”, “O.2” for “0.2”
as §2, with “6.25 μM-200” for “100 μM & 200”, “C. The enzyme activity was measured in terms of international unit (IU).” for “C.”
Lipase activity: One enzyme unit of lipase is defined as that quantity releasing 1 nm of free phenol from the substrate (p-nitro phenol palmitate)/min per ml under standard assay conditions. It is derived from standard graph of p-nitro phenol (Sigma, 104-8)
Percent Inhibition: Enzyme inhibition was presented in the term of % inhibition simply on the basis of change in international unit (IU).
The value of IC50 was derived from linear regression. The value derived is based on interpolated data.

melting point [°C]	IC50 [1] [µM]	inhibition at 100 µM [1] [%]	inhibition at 200 µM [1] [%]	SMILES
77.1 to 78.6				CCCCCCCCCCCC1=C(OC(=O)c2cccc(OC)c2)C(=O)C=C(OC(=O)c2cccc(OC)c2)C1=O (as salt: Na) [Structure #17, 2,5-bis-(3-methoxyphenylcarbonyloxy)-3-undecyl-1,4-benzoquinone]
73.2 to 75.6	< 6.25	99.2	97.9	CCCCCCCCCCCC1=C(OC(=O)c2cccc(F)c2)C(=O)C=C(OC(=O)c2cccc(F)c2)C1=O [Structure #2, 2,5-bis-(3-fluorophenylcarbonyloxy)-3-undecyl-1,4-benzoquinone]
66.2 to 68	7.78	99.6	100	CCCCCCCCCCCC1=C(OC(=O)c2ccccc2F)C(=O)C=C(OC(=O)c2ccccc2F)C1=O [Structure #4, 2,5-bis-(2-fluorophenylcarbonyloxy)-3-undecyl-1,4-benzoquinone]
72.2 to 73.8				CCCCCCCCCCCC1=C(OC(=O)c2ccccc2[N+](=O)[O-])C(=O)C=C(OC(=O)c2ccccc2[N+](=O)[O-])C1=O (as salt: Na) [Structure #14, 2,5-bis-(2-nitrophenylcarbonyloxy)-3-undecyl-1,4-benzoquinone]
112.6 to 114.4	27	97.4	98	CCCCCCCCCCCC1=C(OC(=O)c2cccc([N+](=O)[O-])c2)C(=O)C=C(OC(=O)c2cccc([N+](=O)[O-])c2)C1=O [Structure #11, 2,5-bis-(3-nitrophenylcarbonyloxy)-3-undecyl-1,4-benzoquinone]
